{"source": "paper PMC9112550", "about": "“Optimization of the antimicrobial peptide Bac7 by deep mutational scanning” (BMC Biology, 2022)", "test_system": "E. coli TOP10", "assay": "Single-strain growth experiments, intracellular peptide expression", "assay_type": "cell-based", "details": "negative control, expressed in E. coli TOP10", "procedure": "To assess the antimicrobial activity of single peptides when expressed intracellularly in E. coli TOP10, a monoclonal strain carrying the pBAD plasmid containing a single peptide gene was picked from solid media, incubated overnight, and inoculated into a fresh LB medium containing 0.3% (w/v) L-arabinose to a final OD of 0.01 into 96-well microtiter plate (Greiner). Growth of strains was recorded by measuring OD in a Tecan Infinite 200 PRO (Tecan, Männedorf, CH) for at least 4 h (37°C, 1.5 mm orbital shaking)."}
{"substance": "HNP-1: inactive peptide HNP-1 expressed as the negative control", "values": [{"measurement": "activity on intracellular expression", "result": "inactive"}]}
